# Data published in patent US8426469B2, “Crystalline leukotriene B4” (LTB4 Sweden AB, priority 2006, dated 2013).
# Entries after “also recorded” stand apart in the source; their conditions may differ.
# Assays:
# [1] = solubility of LTB4 in various solvents; assay type: physicochemical; conditions: Table 1; the value is the solvent
# Text: Table 1 below summarizes the solubility of LTB4 in various solvents.
# [2] = pH 7.0-7.6, stored at 2° C. to 25° C. (and above 25° C.); cited from earlier work
# [3] = stability of leukotriene B4 as a function of pH; assay type: physicochemical; conditions: alkaline pH versus neutral or acidic pH
# Text: Accordingly, in a preferred embodiment, the composition according to the present invention comprises an alkaline reacting carrier. The expression “alkaline reacting carrier”, in the context of the present invention, is intended to include an otherwise inert, pharmaceutically acceptable substance (or substances), which creates an alkaline “micro-pH” between 8.2 and 14, especially between 8.5 and 12.5, such as between 8.5 and 11.5, most preferably between 9.5 and 11.5, such as about 9.5, 9.6, 9.7, 9.8, 9.9, 10.0, 10.1, 10.2, 10.3, 10.4, 10.5, 10.6, 10.7, 10.8, 10.9, 11.0, 11.1, 11.2, 11.3, 11.4, or 11.5, around each LTB4 particle when water is adsorbed to the particles of the mixture or when water is added in small amounts to the mixture. In another preferred embodiment, the alkaline “micro-pH” ranges between 8.0 and 9.0, between 8.5 and 9.5, between 9.0 and 10.0, or between 10.0 and 11.5. […]
smiles,measurement,setting,value
"CCCCC/C=C\C[C@@H](O)/C=C/C=C/C=C\[C@@H](O)CCCC(=O)O [LTB4, 5S,12R-dihydroxy-6,8,10,14(Z,E,E,Z)-eicosatetraenoic acid]",Slightly soluble or insoluble (solvent in which LTB4 is slightly soluble or insoluble; anti-solvent),[1],Toluene; also recorded: Water; also recorded: Heptane
same,stability of isotonic aqueous solution,[2],stable for only short periods of time (weeks to months)
same,stability depending on pH,[3],more stable at alkaline pH than at neutral or acidic pH
